Reference: patent US20230053540A1, “TREATMENT OF LIVER INJURY” (Massachusetts Institute of Technology, priority 2019, published 2023)

System: hepatocytes
Experiment: Seq-Well scRNA-Seq of hepatocytes after APAP overdose (signature scores, DEG vs untreated)
Type: in vivo, mouse
Conditions: APAP vs UT, composite DEG

In the case of `CC(=O)Nc1ccc(O)cc1` [APAP, acetaminophen], the “Ndufs4 logFC” value is reported as −0.3132, the “Ndufs8 logFC” value is reported as −0.3614 and the “Ndufv2 logFC” value is reported as −0.3276. The “Ndufv3 logFC” value was −0.3971, the “Neat1 logFC” value was 0.6374 and the “Nedd4l logFC” value was 0.2812. For the same compound, the “Nedd8 logFC” value was −0.3564, the “Nfe2l1 logFC” value was 0.2703 and the “Nid1 logFC” value was 0.3426. The “Nme1 logFC” value was −0.4329, the “Nop10 logFC” value was −0.2919 and the “Nop58 logFC” value was 0.6634. The “Nr0b2 logFC” value was −0.293, the “Nr1d2 logFC” value was 0.4306 and the “Nr1i3 logFC” value was 0.4259. For the same compound, the “Nr2f6 logFC” value was −0.3754, the “Nrip1 logFC” value was 0.2729 and the “Oaf logFC” value was −0.7329. For the same compound, the “Oat logFC” value was −1.225, the “Orm1 logFC” value was 0.3651 and the “Osbpl1a logFC” value was 0.2728. For the same compound, the “Osbpl9 logFC” value was 0.2788, the “Ostc logFC” value was 0.2658 and the “Otc logFC” value was −0.299. For the same compound, the “P4hb logFC” value was 0.4052, the “Pabpc1 logFC” value was 0.4949 and the “Pacsin2 logFC” value was 0.3708. For the same compound, the “Padi3 logFC” value was 0.2957, the “Pak2 logFC” value was 0.2815 and the “Palld logFC” value was 0.3414. The “Pank1 logFC” value was −0.3527, the “Paqr9 logFC” value was −0.3323 and the “Pbld1 logFC” value was −0.4425. The “Pcbd1 logFC” value was −0.6878, the “Pcbp2 logFC” value was 0.3103 and the “Pck1 logFC” value was −0.6522. The “Pdia3 logFC” value was 0.5938, the “Pecr logFC” value was −0.3981 and the “Pex11a logFC” value was 0.3508. For the same compound, the “Pgrmc1 logFC” value was 0.3502, the “Phc2 logFC” value was 0.312 and the “Phf20l1 logFC” value was 0.3085. For the same compound, the “Phlda1 logFC” value was 0.5492, the “Pigr logFC” value was 0.3868 and the “Pipox logFC” value was 0.2725. The “Pla2g7 logFC” value was 0.2823, the “Plek logFC” value was 0.3089 and the “Plin2 logFC” value was 1.461. For the same compound, the “Plin5 logFC” value was 0.3521, the “Plk3 logFC” value was 0.4166 and the “Plscr1 logFC” value was 0.4445. The “Pnkd logFC” value was −0.2928, the “Pnpla7 logFC” value was −0.3016 and the “Pnpla8 logFC” value was 0.2956. For the same compound, the “Pon1 logFC” value was −0.6858, the “Por logFC” value was 0.336 and the “Ppara logFC” value was 0.3589. The “Ppp1r12a logFC” value was 0.3563, the “Prdx1 logFC” value was −0.5292 and the “Prdx4 logFC” value was −0.4176. The “Prdx5 logFC” value was −0.2821, the “Prkaa2 logFC” value was 0.2636 and the “Prodh2 logFC” value was 0.3453. For the same compound, the “Prox1 logFC” value was 0.2663, the “Proz logFC” value was 0.2632 and the “Prrc2c logFC” value was 0.4393. The “Psat1 logFC” value was 0.3012, the “Psen2 logFC” value was −0.9474 and the “Psmb1 logFC” value was −0.3585. For the same compound, the “Psmb3 logFC” value was −0.3303, the “Psmb6 logFC” value was −0.3194 and the “Psme1 logFC” value was −0.394. For the same compound, the “Psme4 logFC” value was 0.2626, the “Ptp4a1 logFC” value was 0.2627 and the “Ptpn2 logFC” value was 0.2734. The “Ptprc logFC” value was 0.4165, the “Ptprf logFC” value was 0.3071 and the “Purb logFC” value was 0.3525. For the same compound, the “Pxk logFC” value was 0.2819, the “Pxmp2 logFC” value was −0.3671 and the “Pzp logFC” value was 0.416. The “Rarres1 logFC” value was −0.4556, the “Rbm25 logFC” value was 0.4215 and the “Rcan1 logFC” value was 0.7073. The “Rdh7 logFC” value was −0.4186, the “Rdx logFC” value was 0.3736 and the “Reep3 logFC” value was 0.409. For the same compound, the “Reep6 logFC” value was 0.5143, the “Rell1 logFC” value was 0.5912 and the “Retnlg logFC” value was 0.3751. For the same compound, the “Rexo2 logFC” value was −0.3263, the “Rgn logFC” value was −1.573 and the “Rgs16 logFC” value was 0.3226. The “Rlim logFC” value was 0.3102, the “Rnase4 logFC” value was −1.049 and the “Rnaseh2c logFC” value was −0.3257. For the same compound, the “Rnf13 logFC” value was 0.2553, the “Rnf144a logFC” value was 0.313 and the “Romo1 logFC” value was −0.3359. The “Rpl4 logFC” value was 0.2839, the “Rpl13a logFC” value was −0.3815 and the “Rpl13 logFC” value was −0.2997. The “Rpl14 logFC” value was −0.2776, the “Rpl38 logFC” value was 0.2543 and the “Rplp0 logFC” value was −0.4309. The “Rps3 logFC” value was −0.3493, the “Rps8 logFC” value was −0.2746 and the “Rps9 logFC” value was −0.3718. For the same compound, the “Rps10 logFC” value was −0.3369, the “Rps15 logFC” value was −0.4552 and the “Rps18 logFC” value was −0.4885. The “Rps21 logFC” value was −0.3645, the “Rps27l logFC” value was −0.8659 and the “Rsp14 logFC” value was −0.4021. For the same compound, the “Saa2 logFC” value was 0.9645, the “Sardh logFC” value was 0.2692 and the “Sbno1 logFC” value was 0.3671. For the same compound, the “Sc4mol logFC” value was −0.3262, the “Scaf11 logFC” value was 0.3598 and the “Scd1 logFC” value was 0.7267. For the same compound, the “Sco2 logFC” value was −0.2929, the “Scp2 logFC” value was −0.5191 and the “Sdhb logFC” value was −0.2896. The “Sdhc logFC” value was 0.3944, the “Sdr9c7 logFC” value was −0.26 and the “Sdsl logFC” value was 0.2593. For the same compound, the “Sec14l2 logFC” value was −0.7897, the “Sec31a logFC” value was 0.263 and the “Sec61b logFC” value was −0.2903. For the same compound, the “Sec62 logFC” value was 0.2516, the “Sel1l logFC” value was 0.336 and the “Selk logFC” value was −0.3383. For the same compound, the “Serpina1b logFC” value was −0.3018, the “Serpina1c logFC” value was −0.4026 and the “Serpina3m logFC” value was 0.9674. The “Serpina3n logFC” value was 0.8483, the “Serpina10 logFC” value was 0.565 and the “Serpina12 logFC” value was −0.4534. For the same compound, the “Serpinf1 logFC” value was 0.3196, the “Serping1 logFC” value was 0.4128 and the “Sf1 logFC” value was 0.3023. The “Sfpq logFC” value was 0.394, the “Sgk1 logFC” value was 0.2843 and the “Sh3bgrl logFC” value was 0.2513. For the same compound, the “Sh3glb1 logFC” value was 0.326, the “Shb logFC” value was 0.3152 and the “Shmt1 logFC” value was −0.3932. For the same compound, the “Sirt3 logFC” value was −0.346, the “Slc4a4 logFC” value was 0.4203 and the “Slc7a2 logFC” value was 0.3526. For the same compound, the “Slc10a1 logFC” value was −0.3258, the “Slc16a6 logFC” value was 0.9114 and the “Slc22a1 logFC” value was −0.7979. The “Slc22a30 logFC” value was −0.3746, the “Slc25a10 logFC” value was 0.3433 and the “Slc25a13 logFC” value was 0.2855. For the same compound, the “Slc25a20 logFC” value was 0.38, the “Slc25a47 logFC” value was 0.5027 and the “Slc27a2 logFC” value was 0.3853. The “Slc27a5 logFC” value was 0.337, the “Slc38a10 logFC” value was 0.2855 and the “Slc39a14 logFC” value was 1.013. For the same compound, the “Slc40a1 logFC” value was 0.467, the “Slco1b2 logFC” value was −1.087 and the “Slirp logFC” value was −0.3085. For the same compound, the “Smap2 logFC” value was 0.3489, the “Smdt1 logFC” value was −0.3673 and the “Smg1 logFC” value was 0.335. For the same compound, the “Snord13 logFC” value was 0.2611, the “Snx10 logFC” value was 0.2856 and the “Sod1 logFC” value was −0.4393. The “Sord logFC” value was −0.3836, the “Spp2 logFC” value was −0.3821 and the “Sptbn1 logFC” value was 0.4227. The “Srebf1 logFC” value was 0.2762, the “Srgn logFC” value was 0.9341 and the “Srp72 logFC” value was 0.3107. For the same compound, the “Srpr logFC” value was 0.3052, the “Srsf11 logFC” value was 0.4012 and the “Ssr3 logFC” value was 0.5218. The “St3gal5 logFC” value was 0.6076, the “Stbd1 logFC” value was −0.2732 and the “Steap4 logFC” value was 0.476. The “Stk17b logFC” value was 0.2911, the “Stom logFC” value was 0.3232 and the “Stt3b logFC” value was 0.3194. For the same compound, the “Suco logFC” value was 0.251, the “Suds3 logFC” value was 0.2539 and the “Sult1d1 logFC” value was 0.4599. The “Supt6 logFC” value was 0.2913, the “Surf4 logFC” value was 0.2586 and the “Syncrip logFC” value was 0.2748. For the same compound, the “Tars logFC” value was 0.4921, the “Tbl1xr1 logFC” value was 0.3075 and the “Tcea3 logFC” value was −0.355. For the same compound, the “Tceb2 logFC” value was −0.3207, the “Tfpi2 logFC” value was −0.3663 and the “Tgm2 logFC” value was 0.3993. The “Tgoln1 logFC” value was 0.3883, the “Timm8b logFC” value was −0.3936 and the “Timm13 logFC” value was −0.433. For the same compound, the “Tjp1 logFC” value was 0.2862.
